According to patent US9265761B2, “Compositions and methods for treating purpura” (ALLERGAN, INC., priority 2007, dated 2016):
Where a name gives a salt, the structure may show the parent alone. Read-outs that look alike come from different tables or passages of the source.

Legend:
purpura = assay: Resolution of pulsed-dye laser induced purpura, topical application after laser (Example 1); type: in vivo, human; details: commercial solutions applied topically every 6-8 hours after pulsed-dye laser (585 nm), trunk of a volunteer, followed 1-13 days; oxymetazoline HCl 0.05%, naphazoline HCl 0.03%, tetrahydrozoline HCl 0.05%, phenylephrine HCl 1.0%, brimonidine tartrate 0.2%
Excerpt: The applied solution was allowed to air-dry without any dressing. […] The evaluated compounds were:
The sites were followed clinically and photographically 1, 3, 4, 6, 11 and 13 days after the creation of the purpura.

laser-induced purpura = assay: Prevention of laser-induced purpura, topical pretreatment before laser (Example 2); type: in vivo, human; details: topical application 3 hours and 1 hour prior to laser; oxymetazoline HCl 0.05%, naphazoline HCl 0.03%, tetrahydrozoline HCl 0.05%, phenylephrine HCl 1.0%, brimonidine tartrate 0.2%
Excerpt: In order to evaluate the effect of topically applied α1 and α2 adrenergic agonists on the prevention of laser-induced purpura on normal non-actinically damaged skin, seven sites on the trunk of a volunteer were marked and treated with the topical application of a commercially available α1 and/or α2 agonist preparation. Six (of the seven) marked sites were pretreated with the topical application of at least one of the testing preparations. The preparations were applied to the skin and gently rubbed on the skin over and immediately surrounding the laser treatment sites 3 hours prior to and 1 hour prior to the delivery of the laser energy. The applied solution was allowed to air-dry without any dressing. […] After the delivery of the laser energy, each spot received only topical petrolatum jelly 3-4 times/day and no additional application of any testing compound. The sites were followed clinically and photographically 1, 3, 4, 6, 11 and 13 days after the creation of the purpura. The evaluated compounds were:
Site 8: Oxymetazoline hydrochloride (0.05%): A solution of oxymetazoline hydrochloride 0.05% (Afrin® Original 12 Hour Nasal Spray (Schering-Plough Healthcare Products) containing: oxymetazoline hydrochloride 0.05%, benzalkonium chloride solution, edetate disodium, polyethylene glycol, povidone, propylene glycol, purified water, sodium phosphate dibasic, sodium phosphate monobasic.
Site 9: Naphazoline hydrochloride (0.03%): A solution of naphazoline hydrochloride 0.03% (Clear Eyes® Maximum Redness Relief (Prestige Brands Inc.) containing: naphazoline hydrochloride 0.03%, glycerin 0.5%, benzalkonium chloride, boric acid, edetate disodium, purified water, sodium borate).
Site 10: Tetrahydrozoline hydrochloride (0.05%): A solution of tetrahydrozoline hydrochloride 0.05% (Visine® Original (Pfizer Consumer Healthcare) containing: tetrahydrozoline hydrochloride 0.05%, benzalkonium chloride, boric acid, edetate disodium, purified water, sodium borate, sodium chloride).
Site 11: Phenylephrine hydrochloride (1.0%): A solution of phenylephrine hydrochloride 1.0% (Neo-Synephrine® Extra Strength Spray (Bayer HealthCare) containing: phenylephrine hydrochloride 1.0%, anhydrous citric acid, benzalkonium chloride, sodium chloride, sodium citrate, water).
Site 14: No treatment after laser light delivered. (“Control”)

solar purpura [1] = assay: Treatment and prevention of solar purpura with topical α1 adrenergic agonist (Example 4); type: in vivo, human
Protocol: Subject 1 is a person with a long-standing history of solar purpura on their forearms. The test area comprised the left dorsal (extensor) forearm from the wrist to the elbow. Pretreatment photos were taken and baseline measurements of the solar purpura on the left extensor forearm from the wrist to the elbow were measured. […] The total area of purpura was 8.94 cm^2. (SEE TABLE 2)
A solution of oxymetazoline hydrochloride 0.05% (Afrin® Original 12 Hour Nasal Spray (Schering-Plough Healthcare Products) containing: oxymetazoline hydrochloride 0.05%, benzalkonium chloride solution, edetate disodium, polyethylene glycol, povidone, propylene glycol, purified water, sodium phosphate dibasic, sodium phosphate monobasic (0.005%)) was applied by the patient to the left dorsal forearm twice daily (morning and evening). […] The sites were followed clinically and photographically.
Subject 2 is a person with a long history of cosmetically disturbing solar purpura on their forearms who wanted to improve the appearance solar (decrease the purpura). The test area comprised the left dorsal (extensor) forearm from the wrist to the elbow. Pretreatment photos were taken and baseline measurements of the solar purpura on the left extensor forearm from the wrist to the elbow were measured. […] The total area of purpura was 1.72 cm^2. (SEE TABLE 3)
A solution of oxymetazoline hydrochloride 0.05% (Afrin® Original 12 Hour Nasal Spray (Schering-Plough Healthcare Products) containing: oxymetazoline hydrochloride 0.05%, benzalkonium chloride solution, edetate disodium, polyethylene glycol, povidone, propylene glycol, purified water, sodium phosphate dibasic, sodium phosphate monobasic (0.005%)) was applied by the patient to the left dorsal forearm once daily (morning). […] The sites were followed clinically and photographically.

solar purpura [2] = details: for Effect: decrease of purpura area compared to mean baseline / Purpura Area / Effect: increase of purpura area compared to mean baseline: 0.2% solution twice daily; for Effect: decrease of purpura area compared to mean baseline / Purpura Area: right dorsal forearm; for Purpura Area: mean baseline 3.67 cm^2; for Effect: increase of purpura area compared to mean baseline: day 24, increase in purpura noted after gardening
Excerpt: The use of a topically applied α2 adrenergic agonist for the treatment and prevention of solar purpura (“actinic purpura”, “Bateman's purpura”): In order to evaluate the effect of topically applied α1 and α2 adrenergic agonists on the prevention and treatment of solar purpura, a volunteer with a diagnosis of solar purpura of the forearms treated with a topically applied α2 adrenergic agonist containing solution. The test area comprised the right extensor forearm from the wrist to the elbow. Photos were taken and baseline scores for the solar purpura on their right dorsal forearm from the wrist to the elbow were measured 6 times over a 91 day period before initiating treatment. Two measurements were taken to approximate the area of each purpuric patch.
The solution was applied with a cotton ball to the skin of the entire right extensor forearm from the wrist to the elbow. The sites were followed clinically and photographically.

[3] = Subject 1, 0.05% solution twice daily
[4] = Subject 2, 0.05% solution once daily

c1ccc2c(CC3=NCCN3)cccc2c1 [naphazoline hydrochloride]
resolution of the purpura compared with non-treated control site (purpura): most pronounced
how pronounced the effect of pretreatment was (smaller purpuric macule/patch, shortened resolution) (laser-induced purpura): more pronounced

Cc1cc(C(C)(C)C)c(O)c(C)c1CC1=NCCN1 [oxymetazoline hydrochloride]
resolution of the purpura compared with non-treated control site (purpura): most pronounced
how pronounced the effect of pretreatment was (smaller purpuric macule/patch, shortened resolution) (laser-induced purpura): more pronounced
Purpura Area (solar purpura [1]; Subject 1, day 17, 0.05% solution twice daily, left extensor forearm, baseline 8.94 cm^2): 9.95 cm^2
Effect: increase of purpura area compared to baseline (solar purpura [1]; Subject 1, day 17, 0.05% solution twice daily, hydrochloride): ↑ 11% from Baseline
Effect: increase of purpura area compared to baseline (solar purpura [1]; Subject 1, day 17, 0.05% solution twice daily, listed as oxymetazoline, hydrochloride): 11%
Purpura Area (solar purpura [1]; Subject 1, day 29, 0.05% solution twice daily, baseline 8.94 cm^2): 5.73 cm^2
Effect: decrease of purpura area compared to baseline (solar purpura [1]; Subject 1, day 29, 0.05% solution twice daily, hydrochloride): ↓ 36% from Baseline
Effect: decrease of purpura area compared to baseline (solar purpura [1]; Subject 1, day 29, 0.05% solution twice daily, listed as oxymetazoline, hydrochloride): 36%
Purpura Area (solar purpura [1]; Subject 1, day 44, 0.05% solution twice daily, baseline 8.94 cm^2): 5.6 cm^2
Effect: decrease of purpura area compared to baseline (solar purpura [1]; Subject 1, day 44, 0.05% solution twice daily, hydrochloride): ↓ 37% from Baseline
Effect: decrease of purpura area compared to baseline (solar purpura [1]; Subject 1, day 44, 0.05% solution twice daily, listed as oxymetazoline, hydrochloride): 37%
Purpura Area (solar purpura [1]; Subject 1, day 81, 0.05% solution twice daily, baseline 8.94 cm^2): 1.44 cm^2
Effect: decrease of purpura area compared to baseline (solar purpura [1]; Subject 1, day 81, 0.05% solution twice daily, hydrochloride): ↓ 84% from Baseline
Effect: decrease of purpura area compared to baseline (solar purpura [1]; Subject 1, day 81, 0.05% solution twice daily, listed as oxymetazoline, hydrochloride): 84%
Purpura Area (solar purpura [1]; Subject 1, day 91 (medication discontinued day 91), 0.05% solution twice daily, baseline 8.94 cm^2): 0.42 cm^2
Effect: decrease of purpura area compared to baseline (solar purpura [1]; Subject 1, day 91, 0.05% solution twice daily, hydrochloride): ↓ 95% from Baseline
Effect: decrease of purpura area compared to baseline (solar purpura [1]; Subject 1, day 91, 0.05% solution twice daily, listed as oxymetazoline, hydrochloride): 95%
Purpura Area (solar purpura [1]; Subject 1, day 98, 7 days off medication, day 91 value 0.42 cm^2): 1.96 cm^2
Effect: increase of purpura area (table: from Baseline; text: from day 91 measurement) (solar purpura [1]; Subject 1, day 98, 7 days off medication, hydrochloride): ↑ 366% from Baseline
Effect: increase of purpura area (table: from Baseline; text: from day 91 measurement) (solar purpura [1]; Subject 1, day 98, 7 days off medication, listed as oxymetazoline, hydrochloride): 366%
Purpura Area (solar purpura [1]; Subject 1, day 112, 14 days off medication, day 91 value 0.42 cm^2): 0.46 cm^2
Effect: increase of purpura area (table: from Baseline; text: from day 91 measurement) (solar purpura [1]; Subject 1, day 112, 14 days off medication, hydrochloride): ↑ 10% from Baseline
Effect: increase of purpura area (table: from Baseline; text: from day 91 measurement) (solar purpura [1]; Subject 1, day 112, 14 days off medication, listed as oxymetazoline, hydrochloride): 10%
Purpura Area (solar purpura [1]; Subject 1, day 122, 24 days off medication, day 91 value 0.42 cm^2): 2.22 cm^2
Effect: increase of purpura area (table: from Baseline; text: from day 91 measurement) (solar purpura [1]; Subject 1, day 122, 24 days off medication, hydrochloride): ↑ 428% from Baseline
Effect: increase of purpura area (table: from Baseline; text: from day 91 measurement) (solar purpura [1]; Subject 1, day 122, 24 days off medication, listed as oxymetazoline, hydrochloride): 428%
patient's impression: new purpuric macules/patches while using the medication (solar purpura [1]; [3]): fewer new purpuric macules/patches
patient's impression: resolution of purpura that occurred (solar purpura [1]; [3]): resolve more quickly
side effects, local or systemic, during the treatment (solar purpura [1]; Subject 1, 0.05% solution twice daily, 91 days): no side effects, either local or systemic
Purpura Area (solar purpura [1]; Subject 2, day 7, 0.05% solution once daily, left extensor forearm, baseline 1.72 cm^2, hydrochloride): 0.00 cm^2
Purpura Area (solar purpura [1]; Subject 2, day 7, 0.05% solution once daily, left extensor forearm, baseline 1.72 cm^2, listed as oxymetazoline, hydrochloride): 0 cm^2
Effect: decrease of purpura area compared to baseline (solar purpura [1]; Subject 2, day 7, 0.05% solution once daily, hydrochloride): ↓ 100% from Baseline
Effect: decrease of purpura area compared to baseline (solar purpura [1]; Subject 2, day 7, 0.05% solution once daily, listed as oxymetazoline, hydrochloride): 100%
Purpura Area (solar purpura [1]; Subject 2, day 31, 0.05% solution once daily, baseline 1.72 cm^2, hydrochloride): 0.00 cm^2
Purpura Area (solar purpura [1]; Subject 2, day 31, 0.05% solution once daily, baseline 1.72 cm^2, listed as oxymetazoline, hydrochloride): 0 cm^2
Effect: decrease of purpura area compared to baseline (solar purpura [1]; Subject 2, day 31, 0.05% solution once daily, hydrochloride): ↓ 100% from Baseline
Effect: decrease of purpura area compared to baseline (solar purpura [1]; Subject 2, day 31, 0.05% solution once daily, listed as oxymetazoline, hydrochloride): 100%
Purpura Area (solar purpura [1]; Subject 2, day 36, 0.05% solution once daily, baseline 1.72 cm^2): 0.36 cm^2
patient's impression: new purpuric patches while using the medication (solar purpura [1]; [4]): fewer new purpuric patches
patient's impression: resolution of purpura that occurred (solar purpura [1]; [4]): resolve more quickly
side effects, local or systemic, during the treatment (solar purpura [1]; [4]): no side effects, either local or systemic
overall outcome of the trials on solar purpura (solar purpura [1]; topically applied once or twice daily, two subjects): dramatically reduces the size and appearance of purpuric macules/patches and may eliminate them

CNC[C@H](O)c1cccc(O)c1 [phenylephrine hydrochloride]
resolution of the purpura compared with non-treated control site (purpura): most pronounced
how pronounced the effect of pretreatment was (smaller purpuric macule/patch, shortened resolution) (laser-induced purpura): more pronounced

c1ccc2c(c1)CCCC2C1=NCCN1 (centres unmarked) [tetrahydrozoline hydrochloride]
how pronounced the effect of pretreatment was (smaller purpuric macule/patch, shortened resolution) (laser-induced purpura): more pronounced

brimonidine tartrate
how pronounced the effect of pretreatment was (smaller purpuric macule/patch, shortened resolution) (laser-induced purpura): less pronounced
overall outcome of the trial on solar purpura (solar purpura [2]; 0.2% topically applied twice daily): reduces the size and appearance of purpuric macules/patches
Effect: decrease of purpura area compared to mean baseline (solar purpura [2]; day 7): ↓ 60% from Baseline
Purpura Area (solar purpura [2]; day 7, person): 1.48 cm^2
Effect: decrease of purpura area compared to mean baseline (solar purpura [2]; day 7, listed as brimonidine): 60%
Effect: decrease of purpura area compared to mean baseline (solar purpura [2]; day 14): ↓ 90% from Baseline
Effect: decrease of purpura area compared to mean baseline (solar purpura [2]; day 14, listed as brimonidine): 90%
Purpura Area (solar purpura [2]; day 14): 0.35 cm^2
Purpura Area (solar purpura [2]; day 24, after gardening): 5.72 cm^2
Effect: increase of purpura area compared to mean baseline (solar purpura [2]): ↑ 34% from Baseline
Effect: increase of purpura area compared to mean baseline (solar purpura [2]; listed as brimonidine): 34%
Purpura Area (solar purpura [2]; day 36): 2.52 cm^2
